According to patent US20090264421A1 (priority 2007, published 2009):

Tested on: U266 myeloma cells
Experiment: ROS (superoxide) by FACS with hydroethidium in U266 cells
Format: cell-based, human
Settings: 200 nM, p<0.001
Procedure: FIG. 7. […] A549 cells were exposed to the indicated concentration of chaetocin for 24 hours, with addition of glutathione or diluent 30 minutes prior to chaetocin addition. Glutathione levels were assessed by spectrophotometric assay as described below. […] Cells were treated with 10 μM chaetocin for 20 minutes prior to assay, and calculated intracellular chaetocin levels were measured by HPLC with adjusted for differences in average cell volume (calculated from measured cell radii ascertained via light microscopy). Shaded area represents 1 standard deviation confidence interval, with central bar reflecting the mean relative intracellular chaetocin level. […] Cells from 4 myeloma patients were exposed to 200 μM hydrogen peroxide for 24 hours prior to assay, with trypan blue exclusion used to assess surviving cells.
Assessment of cellular oxidative stress: Cellular oxidative stress was assessed utilizing 5,6-chloromethyl-2′,7′-dichlorodihydrofluorescein diacetate or hydroethidium (Molecular Probes/Invitrogen, Carlsbad, Calif.) as cell permeable fluorescent probes and FACS analyses.

## CN1C(=O)[C@@]23C[C@]4([C@]56C[C@@]78SS[C@@](CO)(C(=O)N7[C@H]5Nc5ccccc56)N(C)C8=O)c5ccccc5N[C@@H]4N2C(=O)[C@]1(CO)SS3 [chaetocin]
  peak shift (ROS, hydroethidium) relative to stained, untreated cells: 43.26+3.67
